This note sets out measurements from patent US20110263507A1 (priority 2007, published 2011).

What is called Kd is the free concentration of one partner at which half of the binding sites on the other are occupied at equilibrium, for simple one-to-one binding.

Like-named read-outs stand apart in the source and are kept apart here. Where a SMILES comes first, the peptide text is derived from it. Where no end group is shown, it is not given here. [ ]: non-standard residue; d: D form. Ala(indol-4-yl) = N[C@@H](Cc1cccc2[nH]ccc12)C(=O)O; NMeR = CN[C@@H](CCCNC(=N)N)C(=O)O; Tle = CC(C)(C)[C@H](N)C(=O)O; dOrn = NCCC[C@@H](N)C(=O)O

One data set addresses T1, hNTS2 (Homo sapiens, UniProt O95665).
T1 construct: expressed in transfected cells; host or cells: CHO-K1
Description: Radioligand competition binding with [3H]NT, membranes of CHO-K1 cells expressing hNTS2.

Data set [1] can be described thus: Direct injection into the brains of rats. It is filed as in vivo. The following applies: direct injection into brain, unpublished observations. From the text: (See Cusack, B. et al. BRAIN RES 856: 48-54 (2000) and Tyler-McMahon, B. M. et al. EUR J PHARMACOL 390: 107-11 (2000)).
Data set [2] in a line: Degradation of peptides in plasma in vitro (stability to plasma peptidases). It is filed as in vitro ADME. The following applies: peptide incubated with human (FIG. 4) or rat plasma; for half-life: read-out: half-lives in plasma. As for the experimental part: All peptides that were stable (half-lives >100 h), such as NT66, NT67, NT69, NT72, and NT73, have either a blocked amino group (N-Methyl-Arg) or a D-amino in the 8 or 9 position (Table 4).

For another data set, the target named is T2, hNTS1 (Homo sapiens, UniProt P30989).
T2 construct: expressed in transfected cells; host or cells: CHO-K1
Kind of data set: Radioligand competition binding with [3H]NT, membranes of CHO-K1 cells expressing hNTS1. The note with it: for hNTS1 Selectivity: hNTS1 over hNTS2. The procedure:
CHO-K1 cells that had been stably transfected separately with the hNTS1 or hNTS2 genes were cultured in 150 mm (500 cm^2) Petri plates with 35 ml of Dulbecco's modified Eagle's medium containing 100 μM minimal essential medium nonessential amino acids (Life Technologies, Inc.) supplemented with 5% (v/v) FetalClone II bovine serum product (Hyclone Labs, Logan, Utah). […] The cellular pellet (in Tris-HCl buffer) was stored at […] until the radioligand binding was performed.
For use in binding assays, crude membrane preparations were prepared by centrifugation of the cellular pellet at 35,600×g for 10 min. The supernatant was decanted and discarded, and the cellular pellet was resuspended in 1 ml of Tris-HCl buffer followed by homogenization with a Brinkmann Polytron at setting 5.5 for 15 s. Centrifugation was repeated as above, the supernatant was decanted and discarded, and the cellular pellet was resuspended in 1 ml of Tris-HCl buffer followed by homogenization. Centrifugation was repeated a third time, the supernatant was discarded, and the final cellular pellet was suspended in 0.5-2.5 ml of Tris-HCl buffer. Protein concentration of the membrane preparation was estimated by the method of Lowry et al. using bovine serum albumin as a standard.
Incubation was at 20° C. for 40 min. The assay was routinely terminated by addition of ice-cold 0.9% NaCl (5×1.5 ml), followed by rapid filtration through a GF/B filter strip that had been pretreated with 0.2% or 2% polyethyleneimine. Details of binding assays have been described previously. […] Data were analyzed using the LIGAND program.

The nature of data set [3]: Body temperature lowering in mice. The format is in vivo. The following applies: intraperitoneal, 10 times the dosage of that for NT69, FIG. 5. From the text:
At time “0” baseline readings were made. […] The thermistor probe was inserted 2 cm into the rectum for the measurement of body temperature.

[4] abbreviates: Table 2, read-out: hNTS2 Geometric Mean ∀ SEM (equilibrium dissociation constant Kd).
[5] abbreviates: read-out: hNTS1 Geometric Mean ∀ SEM (equilibrium dissociation constant Kd).

T2 sequence (P30989 whole entry): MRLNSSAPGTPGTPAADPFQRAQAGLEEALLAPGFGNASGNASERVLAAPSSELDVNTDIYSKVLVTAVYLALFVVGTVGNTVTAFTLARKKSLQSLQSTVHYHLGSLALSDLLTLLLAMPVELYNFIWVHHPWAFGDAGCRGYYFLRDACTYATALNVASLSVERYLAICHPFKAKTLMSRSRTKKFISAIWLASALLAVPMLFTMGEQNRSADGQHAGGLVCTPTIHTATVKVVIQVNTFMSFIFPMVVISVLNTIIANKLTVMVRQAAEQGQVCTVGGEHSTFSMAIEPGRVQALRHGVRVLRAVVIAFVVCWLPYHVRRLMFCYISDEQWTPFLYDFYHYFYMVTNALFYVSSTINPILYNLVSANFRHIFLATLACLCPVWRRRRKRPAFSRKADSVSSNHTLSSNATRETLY
T1 sequence (O95665 whole entry): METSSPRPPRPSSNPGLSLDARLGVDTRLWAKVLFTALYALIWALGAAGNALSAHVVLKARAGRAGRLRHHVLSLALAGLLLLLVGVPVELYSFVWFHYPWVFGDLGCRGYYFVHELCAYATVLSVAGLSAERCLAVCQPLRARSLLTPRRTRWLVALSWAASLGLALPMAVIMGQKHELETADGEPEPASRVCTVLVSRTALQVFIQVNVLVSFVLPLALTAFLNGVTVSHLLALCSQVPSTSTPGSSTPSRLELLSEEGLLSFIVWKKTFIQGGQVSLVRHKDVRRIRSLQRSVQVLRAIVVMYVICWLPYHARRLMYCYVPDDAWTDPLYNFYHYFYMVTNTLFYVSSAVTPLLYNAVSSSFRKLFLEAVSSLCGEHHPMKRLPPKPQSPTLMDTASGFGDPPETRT
Description for hNTS2: CHO-K1 cells that had been stably transfected separately with the hNTS1 or hNTS2 genes were cultured in 150 mm (500 cm^2) Petri plates with 35 ml of Dulbecco's modified Eagle's medium containing 100 μM minimal essential medium nonessential amino acids (Life Technologies, Inc.) supplemented with 5% (v/v) FetalClone II bovine serum product (Hyclone Labs, Logan, Utah). CHO cells (subculture 7-15) were harvested at confluence by aspiration of the medium, followed by a wash with ice-cold 50 mM Tris-HCl buffer, pH=7.4, which was discarded, resuspension in 5-15 ml of Tris-HCl, scraping the cells with a plastic spatula into a centrifuge tube, and collection of cells by centrifugation at 300×g for 5 min at 4° C., in a GPR centrifuge (Beckman Instruments, Fullerton, Calif.). The cellular pellet (in Tris-HCl buffer) was stored at −180° C. until the radioligand binding was performed.
Incubation was at 20° C. for 40 min. The assay was routinely terminated by addition of ice-cold 0.9% NaCl (5×1.5 ml), followed by rapid filtration through a GF/B filter strip that had been pretreated with 0.2% or 2% polyethyleneimine. […] Data were analyzed using the LIGAND program.
Curves were generated using the LIGAND program. […] Data are the means of duplicate determinations and are representative results from one of at least three independent experiments.

As to `CC[C@H](C)[C@H](NC(=O)[C@@H](Cc1cccc2ccccc12)NC(=O)[C@@H]1CCCN1C(=O)[C@H](CCCNC(=N)N)NC(=O)[C@@H](N)CCCNC(=N)N)C(=O)N[C@@H](CC(C)C)C(=O)O` [NT50, [D-3,1-Nal^11]NT(8-13)], the Kd on hNTS2 (text, read-out: Kd at hNTS2) stood at 17.3 nM. Also, in data set [1], the behavioral effect entry is recorded as “caused behavioral activation” and the “effects on body temperature” value is reported as “little or no effects on body temperature”.
Take `CC[C@H](C)[C@H](NC(=O)[C@H](Cc1cccc2[nH]ccc12)NC(=O)[C@@H]1CCCN1C(=O)[C@H](CCCNC(=N)N)NC(=O)[C@@H](N)CCCNC(=N)N)C(=O)N[C@@H](CC(C)C)C(=O)O` [NT64L, [L-neo-Trp^11]NT(8-13)]: the degradation in plasma result in data set [2] is “rapidly degraded”.
Turning to `CC(C)C[C@H](NC(=O)[C@@H](NC(=O)[C@H](Cc1cccc2[nH]ccc12)NC(=O)[C@@H]1CCCN1C(=O)[C@H](CCCNC(=N)N)NC(=O)[C@@H](N)CCCNC(=N)N)C(C)(C)C)C(=O)O` [NT65, [neo-Trp^11,tert-Leu^12]NT(8-13)] (H-RRP[Ala(indol-4-yl)][Tle]L-OH; N-terminus and C-terminus assumed), the “hNTS2 Selectivity” value at hNTS2 (Table 2, hNTS2 over hNTS1) stood at 1.9; at hNTS2 (Table 4), 1.7. The Kd on hNTS2 (setting [4]) stood at 0.52 ± 0.03 nM; at hNTS1 (setting [5]), 1.01 ± 0.05 nM. The “hNTS1 Selectivity” value at hNTS1 (Table 2) is 0.5. Further, in data set [2], the degradation in plasma entry was “rapidly degraded”.
For the compound `CC(C)C[C@H](NC(=O)[C@@H](NC(=O)[C@H](Cc1cccc2[nH]ccc12)NC(=O)[C@@H]1CCCN1C(=O)[C@H](CCCNC(=N)N)NC(=O)[C@H](N)CCCCN)C(C)(C)C)C(=O)O` [NT66L, [D-Lys^8,L-neo-Trp^11,tert-Leu^12]NT(8-13)] (H-[dK]RP[Ala(indol-4-yl)][Tle]L-OH; N-terminus and C-terminus assumed), the “hNTS2 Selectivity” value at hNTS2 (Table 2, hNTS2 over hNTS1) is 1.4; on hNTS2 (Table 4) it was 2. The Kd was 7.1 ± 0.8 nM on hNTS2 (setting [4]) and 10.2 ± 0.6 nM at hNTS1 (setting [5]). Besides, the “hNTS1 Selectivity” value at hNTS1 (Table 2) is on record as 0.7. Also, in data set [2], the half-life is more than 100 h.
As to `CC[C@H](C)[C@H](NC(=O)[C@H](Cc1cccc2[nH]ccc12)NC(=O)[C@@H]1CCCN1C(=O)[C@H](CCCNC(=N)N)NC(=O)[C@H](N)CCCCN)C(=O)N[C@@H](CC(C)C)C(=O)O` [NT67L, [D-Lys^8,L-neo-Trp^11]NT(8-13)] (H-[dK]RP[Ala(indol-4-yl)]IL-OH; N-terminus and C-terminus assumed), the “hNTS2 Selectivity” value at hNTS2 (Table 2, hNTS2 over hNTS1) was 0.5; on hNTS2 (Table 4), “— (“—“ indicates higher affinity for hNTS1)”. The figures for the Kd on hNTS2 (setting [4]) and at hNTS1 (setting [5]) were 1.23 ± 0.03 nM and 0.59 ± 0.05 nM, respectively. The “hNTS1 Selectivity” value on hNTS1 (Table 2) stood at 2.1. For the same compound, the half-life in data set [2] was more than 100 h.
In the case of `CC(C)C[C@H](NC(=O)[C@@H](NC(=O)[C@H](Cc1cccc2[nH]ccc12)NC(=O)[C@@H]1CCCN1C(=O)[C@H](N)CCCCN)C(C)(C)C)C(=O)O` [NT72, [D-Lys^9,L-neo-Trp^11,tert-Leu^12]NT(9-13)] (H-[dK]P[Ala(indol-4-yl)][Tle]L-OH; N-terminus and C-terminus assumed), the “hNTS2 Selectivity” value at hNTS2 (Table 2, hNTS2 over hNTS1) is listed as 0.02; at hNTS2 (Table 4) it was “— (“—“ indicates higher affinity for hNTS1)”. In addition, the Kd is 1400 nM on hNTS2 (text, read-out: Kd at hNTS2) and 34 nM at hNTS1 (text, read-out: Kd at hNTS1). For the same compound, the “hNTS1 Selectivity” value at hNTS1 (Table 2) was found to be 41.0. The half-life in data set [2] was more than 100 h.
`CC[C@H](C)[C@H](NC(=O)[C@H](Cc1cccc2[nH]ccc12)NC(=O)[C@@H]1CCCN1C(=O)[C@H](N)CCCCN)C(=O)N[C@@H](CC(C)C)C(=O)O` [NT73, [D-Lys^9,L-neo-Trp^11]NT(9-13)] (H-[dK]P[Ala(indol-4-yl)]IL-OH; N-terminus and C-terminus assumed): the “hNTS2 Selectivity” value on hNTS2 (Table 2, hNTS2 over hNTS1) was 0.2. For the same compound, the Kd came out at 162 ± 3 nM on hNTS2 (setting [4]) and 30 ± 3 nM at hNTS1 (setting [5]). Moreover, the “hNTS1 Selectivity” value at hNTS1 (Table 2) was determined as 5.5. Further, the half-life in data set [2] was more than 100 h.
Take `CN[C@@H](CCCNC(=N)N)C(=O)N[C@H](CCCN)C(=O)N1CCC[C@H]1C(=O)N[C@@H](Cc1c[nH]c2ccccc12)C(=O)N[C@H](C(=O)N[C@@H](CC(C)C)C(=O)O)C(C)(C)C` [NT78T, [N-methyl-Arg^8,D-Orn^9,L-Trp^11,tert-Leu^12]NT(8-13)] (H-[NMeR][dOrn]PW[Tle]L-OH; N-terminus and C-terminus assumed): on hNTS2 (Table 2, hNTS2 over hNTS1), the “hNTS2 Selectivity” value amounted to 2.1. Also, the Kd on hNTS2 (setting [4]) was found to be 660 ± 50 nM; on hNTS1 (setting [5]), 1400 ± 300 nM. Also, the “hNTS1 Selectivity” value on hNTS1 (Table 2) worked out at 0.5.
With `CC[C@H](C)[C@H](NC(=O)[C@@H](Cc1cccc2ccccc12)NC(=O)[C@@H]1CCCN1C(=O)[C@H](CCCNC(=N)N)NC(=O)[C@H](CCCNC(=N)N)NC)C(=O)N[C@@H](CC(C)C)C(=O)O` [NT80, [N-methyl-Arg^8,D-3,1-Nal^11]NT(8-13)], in data set [3], the “effect on body temperature” value was “minimal effects”. The Kd at hNTS2 (setting [4]) is 30 nM; on hNTS2 (text, read-out: Kd at hNTS2), approximately 30 nM.
Turning to KRPYIL [NT17, [L-Lys^8]NT(8-13)], the “hNTS2 Selectivity” value on hNTS2 (Table 2, hNTS2 over hNTS1) came to 0.2. The results for the Kd at hNTS2 (setting [4]) and at hNTS1 (setting [5]) were 1.2 ± 0.2 nM and 0.25 ± 0.02 nM, respectively. In addition, the “hNTS1 Selectivity” value on hNTS1 (Table 2) was 4.0.
As for RKPYIL [NT18, [L-Lys^9]NT(8-13)], the Kd at hNTS2 worked out at 1.18 ± 0.09 nM; at hNTS1 it was 1.49 ± 0.09 nM. In addition, the “hNTS2 Selectivity” value on hNTS2 (Table 2, hNTS2 over hNTS1) was 1.3. Further, the “hNTS1 Selectivity” value at hNTS1 (Table 2) is recorded as 0.8.
In the case of RRGYIL [NT07, [Gly^10]NT(8-13)], the Kd is 970 ± 40 nM on hNTS2 and 1380 ± 50 nM at hNTS1. The “hNTS2 Selectivity” value on hNTS2 (Table 2, hNTS2 over hNTS1) came to 1.4. For the same compound, the “hNTS1 Selectivity” value at hNTS1 (Table 2) amounted to 0.7.
As for “RRPAIL [NT08, [Ala^11]NT(8-13)] [listing 1 of 2 here]”, the Kd at hNTS2 (setting [4]) is 58 ± 5 nM; at hNTS1, 2500 ± 200 nM.
With “RRPAIL [NT08, [Ala^11]NT(8-13)] [listing 2 of 2 here]”, the “hNTS2 Selectivity” value on hNTS2 (Table 2, hNTS2 over hNTS1) turned out to be 43; at hNTS2 (Table 4), 43. For the same compound, the “NTS2 Selectivity” value at hNTS2 (Table 3) is listed as 43. On hNTS1 (Table 2), the “hNTS1 Selectivity” value stood at 0.02.
Turning to RRPYLL [NT09, [L-Leu^12]NT(8-13)], the Kd on hNTS2 came to 2.4 ± 0.3 nM; at hNTS1 it was 7.2 ± 0.6 nM. Besides, the “hNTS2 Selectivity” value at hNTS2 (Table 2, hNTS2 over hNTS1) is given as 2.9. Further, the “hNTS1 Selectivity” value at hNTS1 (Table 2) worked out at 0.3.
In the same order, the values of RRPYVL [NT10, [L-Val^12]NT(8-13)] are 8.8 ± 0.4 nM, 11.3 ± 0.6 nM, 1.3 and 0.8.
[DAB^9,L-neo-Trp^11]NT(9-13) [NT75]: the “hNTS2 Selectivity” value on hNTS2 (Table 2, hNTS2 over hNTS1) is recorded as 0.4. In addition, the Kd at hNTS2 (setting [4]) worked out at 169 ± 8 nM; at hNTS1 (Table 2, n.d. = no detectable binding at 1 μM, †/* values published before by the same laboratory, read-out: hNTS1 Geometric Mean ∀ SEM (equilibrium dissociation constant Kd)), 73 ± 5 nM. In addition, the “hNTS1 Selectivity” value on hNTS1 (Table 2) amounted to 2.3.
